# From PubChem BioAssay (NCI)
# Several values for one entry are separate records, joined by “and”; a condition that tells them apart may be missing. Equal entries are not always repeated.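 A five-concentration, 48-hour dose response in 96-well plates underlies each endpoint, interpolated linearly between surrounding concentrations. GI50 marks 50% less growth. Definition used: TGI = concentration required for complete inhibition of growth.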
# Columns and labels:
# Experiment in all cases: growth of human tumour cells (NCI), 48 h
# [1] = test system: HOP-92 NSCLC
# [2] = test system: UO-31 renal
# [3] = test system: EKVX NSCLC
# [4] = test system: MOLT-4 leukemia
# [5] = test system: A549 NSCLC
# [6] = test system: DU-145 prostate
# [7] = test system: U251 CNS
# [8] = test system: OVCAR-5 ovarian
# [9] = test system: HL-60(TB) leukemia
# [10] = test system: OVCAR-8 ovarian
# [11] = test system: A498 renal
# [12] = test system: HS 578T breast
# [13] = test system: CAKI-1 renal
compound,measurement,setting,value
CC(=O)c1c(-c2cccc3ccccc23)c(C#N)c(=S)n(C2OC(CO)C(O)C(O)C2O)c1-c1ccccc1 (stereo unspecified),TGI,[1],> 100 µM
same,GI50,[2],5.09 µM and 1.59 µM
same,TGI,[2],23.8 µM and 3.54 µM
same,TGI,[3],> 100 µM
OC(c1cc2cc(Cl)c(Cl)cc2c2cc(C(F)(F)F)ccc12)C1CCCCN1 (stereo unspecified),GI50,[4],1.59 µM
same,TGI,[4],3.32 µM
same,GI50,[5],1.68 µM
same,TGI,[5],3.18 µM
same,GI50,[6],1.94 µM
same,TGI,[6],3.36 µM
same,GI50,[7],1.72 µM
same,TGI,[7],3.21 µM
same,GI50,[8],1.61 µM
same,TGI,[8],3.1 µM
same,GI50,[2],1.52 µM
same,TGI,[2],3.16 µM
same,GI50,[9],2.28 µM
same,TGI,[9],4.07 µM
same,GI50,[10],1.67 µM
same,TGI,[10],3.21 µM
same,GI50,[11],1.36 µM
same,TGI,[11],2.69 µM
same,GI50,[12],1.54 µM
same,TGI,[12],3.27 µM
same,GI50,[13],2 µM
same,TGI,[13],4.32 µM
